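Following 48 hours of exposure in 96-well plates, responses at five concentrations were used to interpolate endpoints linearly. GI50: concentration for 50% inhibition of growth.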 Active and inactive are the calls of the source. Cut-off read from the data, not from the text of the source: active = GI50 up to about 1.1 µM and inactive = higher. Some results are limits rather than exact numbers.

What all share (assay): NCI anticancer screen, dose series, 48 h
For test [1], the system named is ACHN.
Test [2] has as its system BT-549.
In test [3] the test system is HCC 2998.
The subject of test [4] is HCT-15.
Test [5] has as its system HT-29.
Test [6] has as its system IGROV-1.
In test [7] the test system is LOX IMVI.
The test system of test [8] is MDA-N.
Test [9] has as its system Malme-3M.
Test [10] has as its system NCI-H460.
For test [11], the system named is NCI-H522.
In test [12] the test system is NCI/ADR-RES.
The subject of test [13] is OVCAR-8.
For test [14], the system named is RXF 393.
Test [15] has as its system SK-MEL-28.
The test system of test [16] is SK-MEL-2.
Test [17] relates to SNB-75.
The subject of test [18] is TK-10.
The test system of test [19] is UACC-62.
In test [20] the test system is UO-31.

In the case of `Nc1nc2c(ncn2C2CCC(CO)O2)c(=O)n1C(=O)c1ccccc1` (centres undefined), the GI50 is > 100 µM (inactive) in test [1]; > 100 µM (inactive) in test [2]; > 100 µM (inactive) in test [3]; more than 100 µM in test [4]; > 100 µM (inactive) in test [5]; > 100 µM (inactive) in test [6]. The GI50 in test [7], in test [8], in test [9], in test [10], in test [11] and in test [12] was > 100 µM (inactive) in each case. Moreover, the GI50 in test [13] was > 100 µM (inactive); in [14] it was > 100 µM (inactive); in test [15], > 100 µM (inactive); in [16], > 100 µM (inactive); in test [17] it was > 74.5 µM (inactive); in test [18], > 100 µM (inactive). In addition, the GI50 in [19] and in test [20] was > 100 µM (inactive) each time.
With `COC(C(=O)C(O)C(C)O)C1CC2C=C3C=C(OC4CC(OC5CC(O)C(OC)C(C)O5)C(OC(C)=O)C(C)O4)C(C)C(O)=C3C(O)=C2C(=O)C1OC1CC(OC2CC(OC3CC(C)(O)C(OC(=O)C(C)C)C(C)O3)C(O)C(C)O2)C(O)C(C)O1` (centres undefined), the GI50 in [1] is < 0.01 µM (active); in test [2], < 0.01 µM (active); in test [3], < 0.01 µM (active); in test [4], less than 0.01 µM; in test [5] it was < 0.01 µM (active); in test [6], < 0.01 µM (active). The GI50 in [7], in test [8], in [9], in [10], in [11] and in test [12] was < 0.01 µM (active) in each case. For the same molecule, the GI50 in [13], in [14], in [15], in test [16], in test [17] and in test [18] was < 0.01 µM (active) each time. Further, the GI50 in test [19] and in test [20] was < 0.01 µM (active) throughout.
Turning to `CC1C(=O)OC2CC[N+]3([O-])CC=C(COC(=O)C(C)(O)C1(C)O)C23` (centres undefined), the GI50 in test [1] is > 100 µM (inactive); in [2], > 100 µM (inactive); in test [3], > 100 µM (inactive); in test [4] it was more than 100 µM; in [5], > 100 µM (inactive); in [6], > 100 µM (inactive). The GI50 in test [7], in test [8], in test [9], in [10], in [11] and in test [12] was > 100 µM (inactive) throughout. Besides, the GI50 in [13], in [14], in [15], in test [16], in test [17] and in test [18] was > 100 µM (inactive) in each case. In addition, in test [19], the GI50 is > 100 µM (inactive).
With `O=C(c1ccc(Cl)cc1)N(Cc1cccnc1)C(=S)N(Cc1cccnc1)C(=O)c1ccc(Cl)cc1`, the GI50 in test [1] was 36.1 µM (inactive); in test [2] it was 23.7 µM (inactive); in [3] it was 25.9 µM (inactive); in test [4], 33.9 µM; in test [5], 26.1 µM (inactive); in test [7], 22 µM (inactive). The GI50 in [8] is 22.2 µM (inactive); in test [9], 51.2 µM (inactive); in test [10] it was 44.2 µM (inactive); in test [11] it was 24.2 µM (inactive); in test [12] it was 31.2 µM (inactive); in test [13], 29.6 µM (inactive). Besides, the GI50 in test [14] was 43.6 µM (inactive); in test [15] it was 37.8 µM (inactive); in [16], 23 µM (inactive); in [17], 37.1 µM (inactive); in test [18], 53 µM (inactive); in [19], 24.3 µM (inactive). In addition, the GI50 in test [20] is 34.2 µM (inactive).
For the molecule `COc1cc(OC)c2c(=O)c3cccc(C)c3n(C)c2c1`, the GI50 in [1] was 51.3 µM (inactive); in test [2], > 100 µM (inactive); in [3], > 100 µM (inactive); in test [4] it was more than 100 µM; in test [5], 27.9 µM (inactive); in [6], > 100 µM (inactive). Further, the GI50 is 55.7 µM (inactive) in [7]; 16.6 µM (inactive) in test [8]; 98.2 µM (inactive) in [9]; 94 µM (inactive) in test [10]; > 100 µM (inactive) in test [11]; 64.1 µM (inactive) in [12]. In addition, the GI50 in test [13] is 64.7 µM (inactive); in [14], > 100 µM (inactive); in test [15], 50.1 µM (inactive); in [16], 76.7 µM (inactive); in [17] it was 61.5 µM (inactive); in [18] it was > 100 µM (inactive). In test [19], the GI50 is 61.4 µM (inactive).
Regarding `O=[N+]([O-])c1cc(F)ccc1Sc1ccccc1`, the GI50 in [1] is > 10 µM (inactive); in test [2], > 10 µM (inactive); in test [3], > 10 µM (inactive); in test [4] it was more than 10 µM; in test [5] it was > 10 µM (inactive); in [6], > 10 µM (inactive). Further, the GI50 in test [7], in [8], in test [9], in test [10], in test [11] and in test [12] was > 10 µM (inactive) in each case. Further, the GI50 in test [13], in test [14], in [15], in [16], in [17] and in test [18] was > 10 µM (inactive) throughout. In [19], the GI50 is > 10 µM (inactive).
With `COC(=O)/C=C(\S/C=C(/c1ccccc1)N1CCn2c(C(=O)c3ccccc3)c(C(=O)OC)c(C(=O)OC)c21)C(=O)OC`, the GI50 in [1] was 3.34 µM (inactive); in test [2], 3.83 µM (inactive); in [3] it was > 10 µM (inactive); in test [4], 2.6 µM; in test [5], 2.77 µM (inactive); in test [6], > 10 µM (inactive). Also, the GI50 in test [7] is 1.47 µM (inactive); in test [8] it was > 10 µM (inactive); in [9], 2.2 µM (inactive); in test [10], > 10 µM (inactive); in test [11] it was 0.434 µM (active); in [12], 3.52 µM (inactive). Besides, the GI50 in [13] is 1.73 µM (inactive); in [14], 2.67 µM (inactive); in [16] it was > 10 µM (inactive); in [17] it was > 10 µM (inactive); in test [18] it was 2.63 µM (inactive); in test [19], > 10 µM (inactive).

For the origin of these results see ChEMBL document CHEMBL1201862, “PubChem BioAssay data set” (2004).
